Measurements as given in ChEMBL document CHEMBL1158831, “Meroditerpenoids from a Formosan soft coral Nephthea chabrolii” (J Nat Prod, 2005).

How the values were obtained:
Type in all cases: functional, cell-based
HepG2 = experiment: Cytotoxicity against human HepG2 cells after 6 days by MTT method; conditions: HepG2, 144 h
A549 = experiment: Cytotoxicity against human A549 cells after 6 days by MTT method; conditions: A549, 144 h
MDA-MB-231 = experiment: Cytotoxicity against human MDA-MB-231cells after 6 days by MTT method; conditions: MDA-MB-231, 144 h

Compound | IC50 (HepG2) [µM] | IC50 (A549) [µM] | IC50 (MDA-MB-231) [µM]
CC(C)=CCC/C(=C/CC/C(C)=C/CC/C(C)=C/CC1=CC(=O)C(C)=CC1=O)CO [CHABROLOBENZOQUINONE E] | > 48.8 | > 48.8 | > 48.8
CC(=O)OC/C(=C\CC/C(C)=C/CC/C(C)=C/CC1=CC(=O)C(C)=CC1=O)CCC=C(C)C [CHABROLOBENZOQUINONE F] | 38.1 | 38.1 | 33.2
CC(=O)O[C@H](CC/C(C)=C/CC/C(C)=C/CC1=CC(=O)C(C)=CC1=O)[C@@](C)(O)CCC=C(C)C [CHABROLOBENZOQUINONE H] | > 42.5 | 38 | 31.4
CC(C)=CCC/C(C)=C/CC/C(C)=C/CC[C@](C)(O)/C=C\c1cc(O)c(C)cc1O [CHABROLOHYDROXYBENZOQUINONE E] | > 48.5 | > 48.5 | > 48.5
CC(C)=CCC/C(C)=C/[C@@H](O)C/C(C)=C/CC[C@](C)(O)/C=C\c1cc(O)c(C)cc1O [CHABROLOHYDROXYBENZOQUINONE F] | 44.4 | 42.3 | > 46.7
CC(=O)O[C@H](CC/C(C)=C/CC[C@](C)(O)/C=C\c1cc(O)c(C)cc1O)[C@@](C)(O)CCC=C(C)C [CHABROLOHYDROXYBENZOQUINONE G] | 18.4 | 26.8 | 18
CC(=O)O[C@H](CC/C(C)=C/CCc1ccc2c(c1)C(=O)C(C)=CC2=O)[C@@](C)(O)CCC=C(C)C [CHABROLONAPHTHOQUINONE B] | 12.4 | 33.9 | 4.7
COc1cccc2c1C(=O)c1c(O)c3c(c(O)c1C2=O)C[C@@](O)(C(=O)CO)C[C@@H]3O[C@H]1C[C@H](N)[C@H](O)[C@H](C)O1 [DOXORUBICIN] | 0.17 | 0.17 | 0.07
